# Target: T1, 3-hydroxy-3-methylglutaryl-coenzyme A reductase (Homo sapiens, UniProt P04035)
# T1 sequence (P04035 whole entry): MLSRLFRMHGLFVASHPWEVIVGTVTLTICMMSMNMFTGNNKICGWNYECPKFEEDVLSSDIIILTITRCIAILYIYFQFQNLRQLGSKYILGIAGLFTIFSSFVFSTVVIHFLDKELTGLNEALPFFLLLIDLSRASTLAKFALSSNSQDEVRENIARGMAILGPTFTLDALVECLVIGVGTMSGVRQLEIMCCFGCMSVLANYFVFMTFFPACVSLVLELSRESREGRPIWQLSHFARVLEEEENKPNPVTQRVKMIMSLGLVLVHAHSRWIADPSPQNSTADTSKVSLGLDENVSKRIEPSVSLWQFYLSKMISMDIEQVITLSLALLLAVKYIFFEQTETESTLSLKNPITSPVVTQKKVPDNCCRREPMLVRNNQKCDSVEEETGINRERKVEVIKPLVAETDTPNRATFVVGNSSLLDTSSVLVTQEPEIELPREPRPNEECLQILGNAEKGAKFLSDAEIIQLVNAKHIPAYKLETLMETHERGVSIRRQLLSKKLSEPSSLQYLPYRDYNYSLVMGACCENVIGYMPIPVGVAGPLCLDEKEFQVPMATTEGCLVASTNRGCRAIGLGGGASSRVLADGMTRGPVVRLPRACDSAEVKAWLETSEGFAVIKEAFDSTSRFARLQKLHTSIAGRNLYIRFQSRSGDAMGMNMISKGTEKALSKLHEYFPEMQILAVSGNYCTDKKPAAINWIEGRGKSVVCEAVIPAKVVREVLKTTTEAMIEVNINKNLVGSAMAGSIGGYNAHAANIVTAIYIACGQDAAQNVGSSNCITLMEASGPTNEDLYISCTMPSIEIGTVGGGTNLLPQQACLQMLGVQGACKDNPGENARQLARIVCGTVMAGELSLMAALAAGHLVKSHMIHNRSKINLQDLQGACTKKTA
# Assay: Inhibition of HMG CoA reductase by spectrophotometry
row,SMILES,IC50 [µM]
1,O=C1C[C@H](O)C[C@@H](/C=C/c2c(C3CC3)nc3cc(Sc4ccc(F)cc4)c(F)cc3c2Sc2ccc(F)cc2)O1,45.7
2,COc1ccc2nc(C3CC3)c(/C=C/[C@@H]3C[C@@H](O)CC(=O)O3)c(Sc3ccc(C(C)C)cc3)c2c1,41.3
3,COc1cccc(Sc2c(/C=C/[C@@H]3C[C@@H](O)CC(=O)O3)c(C3CC3)nc3cc(F)c(F)cc23)c1,360
4,CC(C)c1ccc(Sc2c(/C=C/[C@@H]3C[C@@H](O)CC(=O)O3)c(C3CC3)nc3cc(F)c(F)cc23)cc1,759
5,O=C1C[C@H](O)C[C@@H](/C=C/c2c(C3CC3)nc3ccccc3c2Sc2ccc(F)cc2)O1,62.4
6,COc1ccc2nc(C3CC3)c(/C=C/[C@@H]3C[C@@H](O)CC(=O)O3)c(Sc3ccc(F)cc3)c2c1,25.7

# Stronger by IC50, values ahead:
row,IC50 [µM],SMILES
1,11.3,CC(C)c1ccc(Sc2c(/C=C/[C@@H]3C[C@@H](O)CC(=O)O3)c(C3CC3)nc3ccccc23)cc1
2,8.9,O=C(O)C[C@H](O)C[C@H](O)/C=C/c1c(C2CC2)nc2ccccc2c1-c1ccc(F)cc1 [PITAVASTATIN CALCIUM]
3,7.1,COc1cccc(Sc2cc3nc(C4CC4)c(/C=C/[C@@H]4C[C@@H](O)CC(=O)O4)c(Sc4cccc(OC)c4)c3cc2F)c1
4,6.93,O=C1C[C@H](O)C[C@@H](/C=C/c2c(C3CC3)nc3ccc(F)cc3c2Sc2ccc(F)cc2)O1
5,5.61,COc1cccc(Sc2c(/C=C/[C@@H]3C[C@@H](O)CC(=O)O3)c(C3CC3)nc3ccc(F)cc23)c1

# Source: ChEMBL document CHEMBL1153084, “Synthesis and HMG-CoA reductase inhibition of 2-cyclopropyl-4-thiophenyl-quinoline mevalonolactones” (Bioorg Med Chem, 2009)
